# How the values were obtained:
# [1] = tested on: DYT-TOR1A MEF EVs; experiment: Quantitative LC-MS/MS proteomics of EVs from drug-treated DYT-TOR1A MEF cultures (ritonavir, salubrinal); type: cell-based, mouse; parameters: key to RTV Corrective Direction / RTV Corrective Direction, Grwd1 / RTV Corrective Direction, Srrm2 / RTV Corrective Direction, Rbm17 / RTV Corrective Direction, Dcaf8 / RTV Corrective Direction, Edil3 / RTV Corrective Direction, Timp3 / RTV Corrective Direction, Heatr3 / RTV Corrective Direction, Brd4 / RTV Corrective Direction, P3h4 / RTV Corrective Direction, Pacsin3 / RTV Corrective Direction, Naa50 / RTV Corrective Direction, Lpar6 / RTV Corrective Direction, Ndrg1 / RTV Corrective Direction, Kntc1 / RTV Corrective Direction, Cdk11b / RTV Corrective Direction, Sumo1 / RTV Corrective Direction, Lsm4 / RTV Corrective Direction, Hmga2 / RTV Corrective Direction, Cstf1 / RTV Corrective Direction, Tes / RTV Corrective Direction, Sbno1 / RTV Corrective Direction, Unc119b / RTV Corrective Direction, Cfdp1 / RTV Corrective Direction, Sec61b: YES = protein abundance effect opposite to DYT/WT; conditions: EV protein abundance; for RTV Corrective Direction: DYT + RTV (ritonavir) vs DYT, direction compared with DYT/WT; for DYT + RTV/DYT Cohen's d: ritonavir (RTV)-treated DYT vs DYT
# [2] = tested on: WT MEF EVs; experiment: Quantitative LC-MS/MS proteomics of EVs from ISRIB-treated WT MEF cultures; type: cell-based, mouse; parameters: key to ISRIB and DYT Parallel Direction / ISRIB and DYT Parallel Direction, Ctdsp1 / ISRIB and DYT Parallel Direction, Pcdh19 / ISRIB and DYT Parallel Direction, Tspan7 / ISRIB and DYT Parallel Direction, Myo1e / ISRIB and DYT Parallel Direction, Plpp3 / ISRIB and DYT Parallel Direction, Sh3bp4 / ISRIB and DYT Parallel Direction, Dnajc7 / ISRIB and DYT Parallel Direction, Drg1 / ISRIB and DYT Parallel Direction, Maea: YES = protein abundance effect similar to DYT/WT; conditions: EV protein abundance; for WT + ISRIB/WT Cohen's d: ISRIB-treated WT vs WT; for ISRIB and DYT Parallel Direction: WT + ISRIB vs WT, direction compared with DYT/WT
substance,measurement,setting,value
Col10a1,RTV Corrective Direction,[1],YES
same,DYT + RTV/DYT Cohen's d,[1],−3.41
same,WT + ISRIB/WT Cohen's d,[2],0.36
same,ISRIB and DYT Parallel Direction,[2],YES
Cope,RTV Corrective Direction,[1],YES
same,DYT + RTV/DYT Cohen's d,[1],7.24
same,WT + ISRIB/WT Cohen's d,[2],−1.30
same,ISRIB and DYT Parallel Direction,[2],YES
Cul3,RTV Corrective Direction,[1],YES
same,DYT + RTV/DYT Cohen's d,[1],2.36
same,WT + ISRIB/WT Cohen's d,[2],−0.66
same,ISRIB and DYT Parallel Direction,[2],YES
Ddx39b,RTV Corrective Direction,[1],YES
same,DYT + RTV/DYT Cohen's d,[1],13.79
same,WT + ISRIB/WT Cohen's d,[2],−1.12
same,ISRIB and DYT Parallel Direction,[2],YES
Dhx9,RTV Corrective Direction,[1],YES
same,DYT + RTV/DYT Cohen's d,[1],6.23
same,WT + ISRIB/WT Cohen's d,[2],−1.27
same,ISRIB and DYT Parallel Direction,[2],YES

# Reference: US20260266848A1, “COMPOSITIONS AND METHODS FOR DIAGNOSING AND TREATING DYSTONIA” (Duke University, priority 2023, published 2026)
